Molecular target: Human Dopamine Transporter (DAT) (Homo sapiens, UniProt Q01959)
Assay: Human Dopamine Transporter (DAT) Binding (Antagonist Radioligand) Assay
Conditions: for level of inhibition in the dopamine transporter inhibitory assay: statement in words in the description
Experimental: Human Dopamine Transporter (DAT) Binding (Antagonist Radioligand) Assay
Nonspecific binding is determined in the presence of 10 μM BTCP. Following incubation, the samples are filtered rapidly under vacuum through glass fiber filters (GF/B, Packard) presoaked with 0.3% PEI and rinsed several times with ice-cold 50 mM Tris-HCl using a 96-sample cell harvester (Unifilter, Packard). The filters are dried then counted for radioactivity in a scintillation counter (Topcount, Packard) using a scintillation cocktail (Microscint 0, Packard). The results are expressed as a percent inhibition of the control radioligand specific binding.

Sequence of Human Dopamine Transporter (DAT) (Q01959 whole entry): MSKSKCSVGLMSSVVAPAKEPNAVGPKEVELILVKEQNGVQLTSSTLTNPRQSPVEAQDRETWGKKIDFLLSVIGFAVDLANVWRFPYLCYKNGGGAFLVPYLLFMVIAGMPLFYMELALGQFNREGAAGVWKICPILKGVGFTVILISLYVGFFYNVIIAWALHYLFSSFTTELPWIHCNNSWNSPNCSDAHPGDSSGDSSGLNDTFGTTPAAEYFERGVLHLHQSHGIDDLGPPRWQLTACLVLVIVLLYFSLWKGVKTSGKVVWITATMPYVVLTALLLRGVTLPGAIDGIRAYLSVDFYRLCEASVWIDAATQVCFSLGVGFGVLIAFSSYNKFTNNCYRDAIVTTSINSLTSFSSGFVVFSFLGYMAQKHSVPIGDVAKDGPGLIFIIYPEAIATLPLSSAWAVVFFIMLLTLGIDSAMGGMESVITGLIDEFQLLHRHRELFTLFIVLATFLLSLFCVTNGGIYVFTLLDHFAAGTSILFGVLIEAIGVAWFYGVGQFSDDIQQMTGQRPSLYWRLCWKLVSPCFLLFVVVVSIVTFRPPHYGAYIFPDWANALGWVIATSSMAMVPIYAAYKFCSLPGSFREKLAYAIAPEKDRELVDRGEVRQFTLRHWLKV

| SMILES | level of inhibition in the dopamine transporter inhibitory assay | % of Control Specific Binding (mean of two tests) ([3H]BTCP 4 nM radioligand, mean of two tests) |
| --- | --- | --- |
| CC(C)=CCc1c(C2CCc3ccc(O)cc3O2)ccc(O)c1O (stereo in doubt) [Kazinol U, 4-[(2S)-7-hydroxy-3,4-dihydro-2H-chromen-2-yl]-3-(3-methylbut-2-enyl)benzene-1,2-diol] | high level of inhibition | – |
| OC[C@@H](O)[C@@H](/C=C/c1ccc(O)cc1)c1ccc(O)cc1 [Agatharesinol, (2S,3S,4E)-3,5-bis(4-hydroxyphenyl)pent-4-ene-1,2-diol] | extremely high level of inhibition | 4.6% |
| OC[C@@H](O)[C@@H](/C=C/c1ccc(O)cc1)c1ccc(O)c(O)c1 [Sequirin C, 4-[(1S,2E)-1-[(1S)-1,2-dihydroxyethyl]-3-(4-hydroxyphenyl)prop-2-en-1-yl]benzene-1,2-diol] | extremely high level of inhibition | – |
